The source of these data is publication PMC5095173, “Disulfide-activated protein kinase G Iα regulates cardiac diastolic relaxation and fine-tunes the Frank–Starling response” (Nature Communications, 2016).

Where no end group is shown, it is not given here. [ ]: non-standard residue; d: D form. pT = C[C@@H](OP(=O)(O)O)[C@H](N)C(=O)O; Met(O) = CS(=O)CC[C@H](N)C(=O)O; pS = N[C@@H](COP(=O)(O)O)C(=O)O

Experiment [1] deals with PKGIα (analogue-sensitive C42S/M438G), cGMP-activated. Description: Chemical genetic phosphoproteomic screen, cGMP-activated PKGIα C42S/M438G versus unactivated control. In kind it is biochemical, human PKGIα; substrates in rat heart homogenate. The settings on record: for Log2 fold change in phosphorylation, cGMP versus control: PKGIα C42S/M438G + 100 μM cGMP vs basal, 1 h, 30 °C, pH 7.5, rat heart homogenate, label-free LC–MS/MS, n=4, * P<0.05 Dunnett: all values except phospholamban S16; for log2 fold change cGMP vs Control: control = PKGIα C42S/M438G; for log2 fold changes: Group 1 (cGMP-activated) vs Group 3 (control). From the text: (§1) We employed a chemical genetic method[18] to identify direct substrates of cGMP-activated PKGIα and disulfide bond-activated PKGIα in heart tissue. This method involves mutation of the ATP binding-site of the kinase of interest so that it can accept a ‘bulky' N6-alkylated ATP analogue for example, N6^−phenylethyl ATP. An oxygen atom on the γ phosphate is also replaced with a sulfur atom—giving an N6-alkylated ATPγS analogue—so that the mutant kinase catalyses the transfer of a thiophosphate group (–PO3S^3−) to its substrates instead of a phosphate. The thiophosphate group is nucleophilic, providing a basis for substrates of the analogue-sensitive kinase to be purified by a ‘covalent capture' protocol. LC–MS/MS allows identification of the substrate and localization of the phosphorylation site. Thiophosphorylated proteins can also be detected with a thiophosphate ester-specific antibody. Analogue-sensitive mutants of PKGIα and PKGIα C42S (which cannot form the activating intermolecular disulfide bond) were generated by mutating Met438 in the ATP-binding domain to Gly. This mutation was chosen based on a previous study where an analogue-sensitive mutant of the catalytic subunit of PKA—which shares sequence homology with PKGIα—was engineered. Detailed protocols are given below.
(§2) A pCDNA3 expression vector encoding human FLAG-tagged PKGIα (ref. [41]) underwent site-directed mutagenesis to generate constructs for untagged WT, C42S, M438G and C42S/M438G PKGIα. Mutations were introduced using the QuikChange II Site-Directed Mutagenesis Kit (Agilent) according to the manufacturer's instructions. Expression and purification of the PKGIα mutants was performed according to a published method[42] as follows: suspension FreeStyle 293-F cells (ThermoFisher Scientific) were transfected with the appropriate PKGIα construct using the stable cationic polymer polyethyleneimine (PEI) as a transfection reagent. After ∼72 h cells were harvested by centrifugation (400g; room temperature; 15 min), re-suspended in ice cold lysis buffer (25 mM sodium phosphate buffer pH 6.8; 10 mM ethylenediaminetetraacetic acid (EDTA); 100 mM NaCl; 10 mM benzamidine hydrochloride; and 10 mM dithiothreitol (DTT)) and frozen in liquid N2. Cells were lysed by three freeze (liquid N2)-thaw (37 °C) cycles and the lysate was clarified by centrifugation at 140,000g and 4 °C for 30 min. The soluble protein fraction was loaded onto a pre-equilibrated 8-(2-aminoethylamino)adenosine-3′, 5′-cyclic monophosphate column (8-AEA-cAMP agarose; BioLog, Germany) followed by washing with 20 column volumes of lysis buffer. The column was further washed with lysis buffer +3 M NaCl (5 column volumes) and PKGIα was then eluted with lysis buffer +150 mM NaCl and 500 μM cAMP. Removal of cAMP and buffer exchange was achieved by extensive dialysis against 25 mM sodium phosphate buffer pH 6.8, 2 mM EDTA and 100 mM NaCl. For ITC analysis, WT PKGIα was incubated with 10 mM lipoic acid for 2 h on ice to obtain ∼100% disulfide dimer (confirmed by SDS-PAGE). Oxidized WT or C42S PKGIα was further purified by size exclusion chromatography using a HiLoad 16/600 Superdex 200 pg column (GE Healthcare) with 50 mM sodium phosphate buffer pH 7.4 and 100 mM NaCl. Proteins were concentrated using Amicon Ultra centrifugal filter devices (Merck Millipore). DTT was absent in storage buffers so that the activating disulfide bond would not be reduced and so that the PKGIα M438G mutant would be oxidized to disulfide dimer in the presence of air (confirmed by SDS-PAGE). Protein concentration was determined by Pierce BCA assay (ThermoFisher) and enzyme activity was confirmed using the Omnia kinase assay kit (ThermoFisher).
(§3) Male Wistar rats (9–10 weeks; body weight 300–330 g) were euthanized by intraperitoneal injection of sodium pentobarbitone (200 mg kg^−1) with heparin (500 USP units). […]

In experiment [2] the test system is PKGIα (analogue-sensitive M438G), disulfide-activated. Description: Chemical genetic phosphoproteomic screen, disulfide-activated PKGIα M438G versus unactivated control. It counts as biochemical, human PKGIα; substrates in rat heart homogenate. The settings on record: for Log2 fold change in phosphorylation, Disulfide versus control: disulfide-activated PKGIα M438G vs basal, 1 h, 30 °C, pH 7.5, rat heart homogenate, label-free LC–MS/MS, * P<0.05 Dunnett: only phospholamban S16; for log2 fold change Disulfide vs Control: control = PKGIα C42S/M438G; for log2 fold changes: Group 2 (disulfide-activated) vs Group 3 (control).
Source text: as §1, §2, §3

In the case of “CAP-Gly domain-containing linker protein 2: PKGIα substrate, phospho site S353”, the “Log2 fold change in phosphorylation, cGMP versus control” value (from here on “Log2 fold change … cGMP versus control”) in experiment [1] is recorded as 2.05*. Moreover, the “Log2 fold change in phosphorylation, Disulfide versus control” value in experiment [2] (n=4) was 0.98.
For “Cardiac phospholamban: PKGIα substrate, phospho site S16 (MEKVQYLTRSAIRRA[pS]TIEMPQQARQNLQNLFINFCLILICLLLICIIVMLL; cysteine pairing not given here; UniProt P61016 1-52, looked up)”, in that order: −0.81 and 0.41*.
Clip2 pS353: the “log2 fold change cGMP vs Control” value in experiment [1] came to 2.051. Moreover, the “log2 fold change Disulfide vs Control” value in experiment [2] was 0.983.
As for “E3 ubiquitin-protein ligase TRIP12: PKGIα substrate, phospho site S1073”, in experiment [1], the “Log2 fold change … cGMP versus control” value is given as 1.63*. In addition, the “Log2 fold change in phosphorylation, Disulfide versus control” value in experiment [2] (n=4) is listed as 0.66.
As for Foxo1 pS270, the “log2 fold change cGMP vs Control” value in experiment [1] came to 0.9588. Moreover, in experiment [2], the “log2 fold change Disulfide vs Control” value was 0.7421.
Regarding Limd1 pS303, in experiment [1], the “log2 fold change cGMP vs Control” value came out at 2.801. Besides, the “log2 fold change Disulfide vs Control” value in experiment [2] was found to be 2.11.
Regarding Map1a pS460, the “log2 fold change cGMP vs Control” value in experiment [1] came to 2.406. The “log2 fold change Disulfide vs Control” value in experiment [2] stood at 0.5914.
For “Microtubule-associated protein 1A: PKGIα substrate, phospho site S460”, in experiment [1], the “Log2 fold change … cGMP versus control” value was 2.41*. For the same substance, in experiment [2] (n=4), the “Log2 fold change in phosphorylation, Disulfide versus control” value was determined as 0.59.
Mink1 pS997 (KG[pS]VVNVNPTNTR): the “log2 fold change cGMP vs Control” value in experiment [1] turned out to be 0.5982. For the same substance, the “log2 fold change Disulfide vs Control” value in experiment [2] is on record as 0.583.
As for “Mrps31 pS191 (RVSFTQIISNMK; also: phosphoserine (pS191), site in peptide not given here)”, the “log2 fold change cGMP vs Control” value in experiment [1] turned out to be 0.6921. Further, the “log2 fold change Disulfide vs Control” value in experiment [2] turned out to be 0.1676.
As to “Mthfd1 pT545 (KITIGQAPTEK; also: phosphothreonine (pT545), site in peptide not given here)”, the “log2 fold change cGMP vs Control” value in experiment [1] was 3.681. In addition, the “log2 fold change Disulfide vs Control” value in experiment [2] is listed as 1.475.
Take “Mybbp1a pS1318 (ARLSLVSR; also: phosphoserine (pS1318), site in peptide not given here)”: in experiment [1], the “log2 fold change cGMP vs Control” value was -0.9192. In experiment [2], the “log2 fold change Disulfide vs Control” value is recorded as -0.09923.
As for “Mylk3 pS155 (KG[pS]LADGPEENKEQAEVAGVKPK)”, the “log2 fold change cGMP vs Control” value in experiment [1] was 3.16. Moreover, the “log2 fold change Disulfide vs Control” value in experiment [2] was 1.131.
Turning to Nucb1 pS368 (AQRL[pS]QETEALGR), the “log2 fold change cGMP vs Control” value in experiment [1] is listed as 5.775. For the same substance, the “log2 fold change Disulfide vs Control” value in experiment [2] amounted to 3.208.
For “Nucb2 pS85 (SGRLSQELDLVSHK; also: phosphoserine (pS85), site in peptide not given here)”, in that order: -1.746 and -0.4443.
On to “Olr1571 pS170 (AISSSQGK; also: phosphoserine (pS170), site in peptide not given here)”, for which the “log2 fold change cGMP vs Control” value in experiment [1] is listed as -4.008. Also, the “log2 fold change Disulfide vs Control” value in experiment [2] is listed as -1.218.
In the case of “Pcnp pS95 (KASAISIR; also: phosphoserine (pS95), site in peptide not given here)”, the “log2 fold change cGMP vs Control” value in experiment [1] was -1.793. In experiment [2], the “log2 fold change Disulfide vs Control” value is 0.1824.
Pde4a pS140 (RE[pS]FLYR): the “log2 fold change cGMP vs Control” value in experiment [1] is reported as 1.223. For the same substance, the “log2 fold change Disulfide vs Control” value in experiment [2] was 1.1526.
Regarding “Pln pS16 (RA[pS]TIEMPQQAR; not fully specified (residue 7))”, in experiment [1], the “log2 fold change cGMP vs Control” value is recorded as -0.8119. Besides, the “log2 fold change Disulfide vs Control” value in experiment [2] amounted to 0.4097.
Prkcdbp pS199 (KG[pS]EAAQPTPVKPPR): the “log2 fold change cGMP vs Control” value in experiment [1] amounted to 1.54. Further, in experiment [2], the “log2 fold change Disulfide vs Control” value is reported as 1.3478.
Regarding “Protein SET: PKGIα substrate, phospho site S7”, the “Log2 fold change … cGMP versus control” value in experiment [1] is listed as 3.80*. Moreover, in experiment [2] (n=4), the “Log2 fold change in phosphorylation, Disulfide versus control” value came out at 1.76.
On to Prrc2a pS457, for which, in experiment [1], the “log2 fold change cGMP vs Control” value was determined as 0.5056. In addition, the “log2 fold change Disulfide vs Control” value in experiment [2] was determined as 0.2134.
As for “RApSTIEMPQQAR [phosphopeptide from the cardiac protein phospholamban]”, the “phosphopeptide abundance relative to control, PKGIα activated by Cys42 oxidation” value in experiment [2] (PLN pSer16, P<0.05, n=4) was “significantly increased relative to control”.
As to “Rnf123 pS690 (FLSTAAVSL[Met(O)]TPR; also: phosphoserine, site not given here)”, the “log2 fold change cGMP vs Control” value in experiment [1] came out at 3.971. Further, in experiment [2], the “log2 fold change Disulfide vs Control” value is given as -1.634.
For “Ryr2 pS2798 (RISQTSQVSIDAAHGYSPR; also: phosphoserine (pS2798), site in peptide not given here)”, the log2 fold changes in experiment [1] is 1.758; in experiment [2], -0.1315.
“Sarnp pS138 (GLSSDTKP[Met(O)]VNLDK; also: phosphoserine, site not given here)”: the results for the log2 fold changes in experiment [1] and in experiment [2] were 4.118 and 1.9607, respectively.
With Set pS7 (RQ[pS]AILPQPK), the “log2 fold change cGMP vs Control” value in experiment [1] was determined as 3.804. The “log2 fold change Disulfide vs Control” value in experiment [2] came out at 1.764.
Consider “Snx17 pS437 (LSSKLSAVSLR; also: phosphoserine pS437, several Ser, place not given here)”, for which the log2 fold changes in experiment [1] is 3.5; in experiment [2], 1.271.
As for Speg pS2019, the log2 fold changes in experiment [1] was determined as 1.632; in experiment [2], 1.452.
For Speg pS2135, in that order: 4.01 and 1.764.
In the case of Speg pS2410, the log2 fold changes in experiment [1] is on record as -0.7401; in experiment [2], -0.1096.
For “Stmn1 pS31 (SKESVPEFPLSPPK; also: phosphoserine pS31, several Ser, place not given here)”, in that order: 4.264 and 0.3093.
For Tnni3 pS151, in that order: 2.921 and -0.2077.
Regarding Tnni3 pS167 (AKE[pS]LDLR), the log2 fold changes in experiment [1] is on record as 3.492; in experiment [2] it was 1.654.
In the case of Trip12 pS1073, in experiment [1], the “log2 fold change cGMP vs Control” value was determined as 1.63. Moreover, in experiment [2], the “log2 fold change Disulfide vs Control” value is given as 0.661.
Trmt10c pT377 (RKH[pT]GYLEVPEHSQAAFR): the “log2 fold change cGMP vs Control” value in experiment [1] turned out to be 1.984. Also, the “log2 fold change Disulfide vs Control” value in experiment [2] was found to be 0.4487.
As for “Troponin I, cardiac muscle: PKGIα substrate, phospho site S167”, in experiment [1], the “Log2 fold change … cGMP versus control” value was 3.49*. In experiment [2] (n=4), the “Log2 fold change in phosphorylation, Disulfide versus control” value is recorded as 1.65.
For the substance “Wipf1 pS324 (NLSLTSPTPPLPSPGR; also: phosphoserine pS324, several Ser, place not given here)”, the log2 fold changes is given as 2.215 in experiment [1] and -0.2547 in experiment [2].
